# Reference: patent US20220348876A1, “METABOLISM GUIDES DEFINITIVE LINEAGE SPECIFICATION DURING ENDOTHELIAL TO HEMATOPOIETIC TRANSITION” (Amniotics AB, priority 2019, published 2022)
# What was measured:
# Type in all cases: cell-based, human
# HE cells [1] = assay: GPA+ clones from single HE cells on OP9-DL1 stroma; conditions: of 552 single cells per condition, day 14; control 9
# Text: In some examples to further assess the effect of pyruvate manipulation on a single cell level, single HE cells were sorted onto OP9-DL1 stroma and GPA^+ clones were scored at day 14. From a total of 552 single cells per condition, 12 GPA^+ clones were detected in the UK5099-treated condition and 7 GPA^+ clones in the DCA-treated condition as compared to 9 GPA^+ clones in the control (FIG. 14, d).
# HE cells [2] = assay: single-cell RNAseq of treated HE cells at day 2
# Experimental: Sorted HE, EHT and HSC-like cells as well magnetically selected (Miltenyi Biotec) cord blood CD34^+ cells were plated onto Matrigel (16 μg/cm^2, Corning)-coated 96-well flat bottom plates in HE medium (Ditadi, A. & Sturgeon, C. M. Methods 101, 65-72 (2016)) with 1% penicillin-streptomycin and kept in a humidified incubator at 37° C., 5% CO2, 4% O2 overnight. The following day (day 0), wells were washed twice with PBS and fresh HE medium was added, together with UK5099 (10 μM) or DCA (3 mM), where indicated. On day 1 and 2 (as indicated), cells were washed twice with PBS 0.04% UltraPure BSA and collected after a 2-minute incubation at 37° C. with StemPro Accutase Cell Dissociation Reagent. Cells were spun down, resuspended in PBS 0.04% UltraPure BSA, counted (yield between 8,000-18,000 cells) and library preparation was conducted according to the Chromium Single Cell 3′ Reagent kit v3 instructions (10× Genomics). Sequencing was performed on a NOVASeq 6000 from Illumina with the run parameters (28-8-0-91) recommended by 10× Genomics with a final loading concentration of 300 pM of the pooled libraries. Human Umbilical Cord Blood samples were collected from Skane University Hospital (Lund and Malmo) and Helsingborg Hospital with informed consents according to guidelines approved by the regional ethical committee.
# The data was processed and analyzed using Seurat v3.1.0, where cells were allowed to have up to 20% mitochondrial reads prior to log-normalization and finding the top 500 variable genes using the “vst” method. Cell cycle scores were calculated and the data was scaled regressing on mitochondrial content and the difference of the S and G2M score. Principal components were calculated prior to calculating a UMAP. Pseudotime trajectories describing two developmental routes were identified in our EHT dataset using Slingshot (Street, K. et al. BMC Genomics 19, 477 (2018)) along which the cells were ordered. The cells were then binned along each trajectory where the cell-type composition of each bin was calculated as percentages. Cord blood CD34^+ cells were mapped to our data and labeled using scCoGAPS (Stein-O'Brien, G. L. et al. Cell Syst 8, 395-411.e8 (2019)). CS13 data from Zeng et al. (Zeng, Y. et al. Cell Res 1-14 (2019)) was read and processed to make a UMAP from which the cells they name as “AEC” and “Hem” were identified. These 99 cells were mapped to our data and labeled using SCMAP (Kiselev, V. Y. et al. Nat Methods 15, 359-362 (2018)). Our EHT data was mapped to data from Zeng et al. (Zeng, Y. et al. Cell Res 1-14 (2019)) and vice versa using scCoGAPS where 10 patterns were identified in each data set and then projected to each other using projectR. Each cell was assigned to the group that achieved the highest weight. An overview showing the relationship between cell-types and patterns was done by forming a contingency table on which correspondence analysis was performed using the ca package for R. Differentially expressed genes were found using the FindAllMarkers function. Cell numbers for day 1 samples are as follows: HE=1451, EHT=1523, HSC-like=732. […] All assessed endothelial and hematopoietic genes were previously used in several publications to validate the EHT process (Zhou, F. et al. Nature 533, 487-492 (2016); Swiers, G. et al. Nat Commun 4, 2924 (2013); Ng, E. S. et al. Nature Biotechnology 34, 1168-1179 (2016) and Guibentif, C. et al. Cell Reports 19, 10-19 (2017)). […]
# HE cells [3] = assay: HE cell subculture with compounds, flow cytometry
# HE cells [4] = assay: globin transcript q-PCR in CFU colonies; conditions: normalized to KLF1, relative to non-treated
# Experimental: (§1) Subcultured HE cells were treated with StemPro Accutase Cell Dissociation Reagent for 2 minutes at 37° C. and dissociated cells were resuspended in 3 ml Methocult H4230 (STEMCELL Technologies, France) (prepared according to manufacturer's instructions, with 20 mL Iscove's Modified Dulbecco's Medium containing 2.5 μg hSCF, 5 μg GM-CSF, 2.5 μg IL-3 and 500 U EPO). Each mixture was divided onto 2 wells of a non-tissue culture treated 6-well plate. Following a 12-day incubation in a humidified incubator at 37° C., 5% CO2, 20% O2, colonies were morphologically distinguished and scored. For globin analysis, colonies in Methocult wells were harvested with PBS, washed thoroughly and frozen in RLT buffer with β-mercaptoethanol. Following RNA extraction and RT (Qiagen), gene expression was assessed with taqman probes by q-PCR. The taqman probes used in this study are HBA1/2 (Hs00361191_g1), HBE1 (Hs00362216_m1), HBG2/1 (Hs00361131_g1) and KLF1 (Hs00610592_m1).
# HE cells [5] = assay: Colony forming unit assay of subcultured HE cells; conditions: for ratio of CFU-E colonies to the sum of CFU-G, CFU-GM and CFU-M colonies: 6 days, compared to the control
# Experimental: as §1
# [6] = 3 or 6 days of UK5099, vs untreated
compound,measurement,setting,value
N#C/C(=C\c1cn(-c2ccccc2)c2ccccc12)C(=O)O [UK5099],GPA+ clones,HE cells [1],12
same,"expression of LSD1, GFI1 and GFI1B",HE cells [2]; UK5099-treated compared to DCA-treated cells,higher levels
same,"average expression levels of erythroid lineage genes (RYK, KLF3, TAL1, GATA2, ZFPM1, KLF1, NFE2, ANK1, HBQ1)","HE cells [2]; clusters 6 and 7, vs untreated HE cells",higher
same,more cells in cluster 7 compared to the control,"HE cells [2]; day 2, UK5099 10 μM",38%
same,percentage of cells in cluster 6,"HE cells [2]; day 2, UK5099 10 μM or DCA 3 mM",constant between conditions
same,proliferation of CD45+ cells deriving from HE,"HE cells [3]; CTV, UK5099 10 μM or DCA 3 mM",did not have an effect
same,frequency of HSC-like cells deriving from HE,HE cells [3]; UK5099 10 μM or DCA 3 mM,did not have an effect
same,proliferation of the GPA+ population deriving from HE,"HE cells [3]; day 3, CTV, UK5099 10 μM or DCA 3 mM",No differences
same,HE-derived CD43+GPA+ cell output,"HE cells [3]; day 3 of subculture vs control, BPTES 25 μM, UK5099 10 μM, 1-AA 4 mM, DCA 3 mM",striking increase
same,levels of total CD43+ cells,"HE cells [3]; day 6, treated vs untreated",unchanged
same,proliferation by EdU incorporation,"HE cells [3]; days 1 and 2 of subculture, 24 h pulse",no differences
same,decrease in the CD43+CD45+ population,"HE cells [3]; deriving from HE cells, day 6, UK5099 10 μM",2 -fold
same,HBA1-2 (adult globin) expression,HE cells [4],did not have an effect
same,HBE1 (embryonic) globin transcripts,HE cells [4],significant increase
same,HBG1-2 (fetal) globin transcripts,HE cells [4],significant increase
same,erythroid colony (CFU-E) formation,HE cells [5]; [6],significantly increased
same,"granulocyte and macrophage colonies (CFU-G, GM and M)",HE cells [5]; [6],decreased
same,"ratio of CFU-E colonies to the sum of CFU-G, CFU-GM and CFU-M colonies",HE cells [5],20 -fold higher
"O=C(O)C(Cl)Cl [DCA, dichloroacetate]",GPA+ clones,HE cells [1],7
same,less cells in cluster 7 compared to the control,"HE cells [2]; day 2, DCA 3 mM",35%
same,decrease in CD43+GPA+ population,"HE cells [3]; day 6 of HE subculture, DCA 3 mM",50%
same,increase in the percentage of CD43+CD45+ cells,"HE cells [3]; deriving from HE, day 6, DCA 3 mM",80%
same,"ratio of CFU-E colonies to the sum of CFU-G, CFU-GM and CFU-M colonies",HE cells [5],more than 3 -fold lower
